From patent publication US20120010173A1 (SEPS PHARMA N.V., priority 2009, published 2012)

Legend:
[1] = Solubility of fosfluconazole derivatives in pharmaceutical solvents (Table 2); type: physicochemical; details: thermodynamic from solid
Description: The solubility determination method used was as follows: a suspension of 6 mg of the tested fosfluconazole derivative in 500 μl of the applicable pharmaceutical solvent was rotatively shaken for 24 hours at 800 rpm at 25° C. The saturated fosfluconazole derivative solution was filtered (0.45 μm) and 150 μl of the filtrate was diluted in dimethylsulfoxide (50 μl DMSO). This solution was assayed, each assay being carried out in three-fold, by measurement with Liquid Chromatography-Mass Spectrometry (LCMS, 1 μl and 10 μl injection). Standards were prepared by dissolving the corresponding fosfluconazole derivative in DMSO (1 mg/ml). To determine the solubility, four aliquots (0.5, 1, 2, 4 μl) of the standard solution were injected using the same LCMS conditions as for the above exemplary samples.

[2] = Chemical stability in pharmaceutical solvents (weight % remaining in solution, LCMS); type: physicochemical
Description: Table 4 provides the chemical stability data in some pharmaceutical solvents, expressed as the weight percentage (% w/w) of the final fosfluconazole derivative produced and characterized in example 1 that remained in solution after a certain period of time. The test was carried out twice, and the remaining weight % was determined by Liquid Chromatography-Mass Spectrometry (LCMS).
Table 5 provides the chemical stability data in some pharmaceutical solvents at 25° C., expressed as the weight percentage (% w/w) of the final fosfluconazole derivative produced and characterized in example 2 that remained in solution after a certain period of time. The test was carried out twice, and the remaining weight % was determined by Liquid Chromatography-Mass Spectrometry (LCMS).
Table 6 provides the chemical stability data in some pharmaceutical solvents at 25° C., expressed as the weight percentage (% w/w) of the final fosfluconazole derivative produced and characterized in example 3 that remained in solution after a certain period of time. The test was carried out twice, and the remaining weight % was determined by Liquid Chromatography-Mass Spectrometry (LCMS).
Table 7 provides the chemical stability data in some pharmaceutical solvents, expressed as the weight percentage (% w/w) of the final fosfluconazole derivative produced and characterized in example 4 that remained in solution after a certain period of time. The test was carried out twice, and the remaining weight % was determined by Liquid Chromatography-Mass Spectrometry (LCMS).
Table 8 provides the chemical stability data in some pharmaceutical solvents, expressed as the weight percentage (% w/w) of the final fosfluconazole derivative produced and characterized in example 5 that remained in solution after a certain period of time. The test was carried out twice, and the remaining weight % was determined by Liquid Chromatography-Mass Spectrometry (LCMS).
Table 9 provides the chemical stability data in some pharmaceutical solvents, expressed as the weight percentage (% w/w) of the final fosfluconazole derivative produced and characterized in example 6 that remained in solution after a certain period of time. The test was carried out twice, and the remaining weight % was determined by Liquid Chromatography-Mass Spectrometry (LCMS).
Table 10 provides the chemical stability data in some pharmaceutical solvents, expressed as the weight percentage (% w/w) of the final fosfluconazole derivative produced and characterized in example 14 that remained in solution after a certain period of time. The test was carried out twice, and the remaining weight % was determined by Liquid Chromatography-Mass Spectrometry (LCMS).

## CCCCCCCCCOP(=O)([O-])OC(Cn1cncn1)(Cn1cncn1)c1ccc(F)cc1F.[Na+] [Example 14, sodium 2-(2,4-difluorophenyl)-1,3-di(1H-1,2,4-triazol-1-yl)propan-2-yl nonyl phosphate]
[1]; aqueous with cosolvent or surfactant or cyclodextrin, H2O/Cremophor RH 40 (80/20), 25° C.
  solubility at 24 h: > 10000 µg/mL
[1]; aqueous with cosolvent or surfactant or cyclodextrin, H2O/Kleptose HPB (60/40), 25° C.
  solubility at 24 h: > 10000 µg/mL
[1]; aqueous with cosolvent or surfactant or cyclodextrin, H2O/Vitamin E TPGS (90/10), 25° C.
  solubility at 24 h: > 10000 µg/mL
[1]; aqueous with cosolvent or surfactant or cyclodextrin, H2O/polysorbate 80 (80/20), 25° C.
  solubility at 24 h: > 10000 µg/mL
[1]; oil or lipid, Miglyol 812, 25° C.
  solubility at 24 h: 1200 µg/mL
[1]; organic solvent or mixture, PEG 400, 25° C.
  solubility at 24 h: > 10000 µg/mL
[1]; water (pH 2), aqueous buffer, H2O (pH = 2), 25° C.
  solubility at 24 h: > 10000 µg/mL
[1]; water (pH 7), aqueous buffer, H2O (pH = 7), 25° C.
  solubility at 24 h: > 10000 µg/mL
[1]; water (pH 10), aqueous buffer, H2O (pH = 10), 25° C.
  solubility at 24 h: > 10000 µg/mL
[2]; H2O (pH = 2), 4 hours
  weight percentage that remained in solution: 99.0 % w/w
[2]; H2O (pH = 2), 1 day
  weight percentage that remained in solution: 99.1 % w/w
[2]; H2O (pH = 2), 2 days
  weight percentage that remained in solution: 99.2 % w/w
[2]; H2O (pH = 2), 7 days
  weight percentage that remained in solution: 99.2 % w/w
[2]; H2O (pH = 2), 14 days
  weight percentage that remained in solution: 99.6 % w/w
[2]; H2O (pH = 7), 4 hours
  weight percentage that remained in solution: 99.1 % w/w
[2]; H2O (pH = 7), 1 day
  weight percentage that remained in solution: 99.3 % w/w
[2]; H2O (pH = 7), 2 days
  weight percentage that remained in solution: 99.2 % w/w
[2]; H2O (pH = 7), 7 days
  weight percentage that remained in solution: 99.2 % w/w
[2]; H2O (pH = 7), 14 days
  weight percentage that remained in solution: 99.4 % w/w
[2]; H2O (pH = 10), 4 hours
  weight percentage that remained in solution: 99.3 % w/w
[2]; H2O (pH = 10), 1 day
  weight percentage that remained in solution: 99.3 % w/w
[2]; H2O (pH = 10), 2 days
  weight percentage that remained in solution: 99.4 % w/w
[2]; H2O (pH = 10), 7 days
  weight percentage that remained in solution: 99.3 % w/w
[2]; H2O (pH = 10), 14 days
  weight percentage that remained in solution: 99.9 % w/w
[2]; H2O/Kleptose HPB (60/40), 4 hours
  weight percentage that remained in solution: 99.5 % w/w
[2]; H2O/Kleptose HPB (60/40), 1 day
  weight percentage that remained in solution: 99.3 % w/w
[2]; H2O/Kleptose HPB (60/40), 2 days
  weight percentage that remained in solution: 99.2 % w/w
[2]; H2O/Kleptose HPB (60/40), 7 days
  weight percentage that remained in solution: 99.3 % w/w
[2]; H2O/Kleptose HPB (60/40), 14 days
  weight percentage that remained in solution: 100.0 % w/w
[2]; PEG 400, 4 hours
  weight percentage that remained in solution: 99.3 % w/w
[2]; PEG 400, 1 day
  weight percentage that remained in solution: 99.3 % w/w
[2]; PEG 400, 2 days
  weight percentage that remained in solution: 99.4 % w/w
[2]; PEG 400, 7 days
  weight percentage that remained in solution: 99.4 % w/w
[2]; PEG 400, 14 days
  weight percentage that remained in solution: 100.0 % w/w
